PMC9413491, “A Novel and Cross-Species Active Mammalian INDY (NaCT) Inhibitor Ameliorates Hepatic Steatosis in Mice with Diet-Induced Obesity” (Metabolites, 2022)

Assays:
[1] = biological target: T1, mouse Nact (Mus musculus, UniProt Q67BT3); assay: [14C] citrate uptake in HEK293 cells recombinantly expressing mouse Nact; assay type: cell-based; settings: HEK293 overexpressing mouse Nact, citrate substrate; read-out: IC50 [14C] citrate uptake, HEK293 (mouse Nact)
T1 construct: expressed in transfected cells; host or cells: HEK293 (DSMZ), stably transfected, G418 selection
T1 sequence (Q67BT3 1-572): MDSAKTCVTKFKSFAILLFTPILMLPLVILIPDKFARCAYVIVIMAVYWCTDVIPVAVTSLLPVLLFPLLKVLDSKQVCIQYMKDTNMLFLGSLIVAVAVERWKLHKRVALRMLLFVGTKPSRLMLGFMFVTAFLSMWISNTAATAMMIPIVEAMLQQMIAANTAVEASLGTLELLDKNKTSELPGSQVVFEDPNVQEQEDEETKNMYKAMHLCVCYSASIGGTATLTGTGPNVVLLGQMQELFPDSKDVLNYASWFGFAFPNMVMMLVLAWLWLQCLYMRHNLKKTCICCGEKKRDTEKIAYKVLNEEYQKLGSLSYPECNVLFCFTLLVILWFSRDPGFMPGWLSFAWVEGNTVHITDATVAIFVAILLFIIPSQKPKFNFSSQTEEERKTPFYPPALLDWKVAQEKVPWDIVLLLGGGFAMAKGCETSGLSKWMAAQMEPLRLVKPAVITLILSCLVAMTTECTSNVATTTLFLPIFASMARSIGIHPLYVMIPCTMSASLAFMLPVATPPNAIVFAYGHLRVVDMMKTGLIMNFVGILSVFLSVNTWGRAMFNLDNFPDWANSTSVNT
Source text: We determined activity on human NaCT by measuring citrate uptake into HepG2 cells, which endogenously expressed NaCT [37] and for mouse Nact, using HEK293 cells recombinantly expressing mouse Nact (HEK-Nact). We cloned the mouse Slc13a5 cDNA encoding Nact as described previously.
For radiometric [14C] citrate uptake assays, we used Cytostar-T plates (Perkin Elmer#RPNQ0166, Waltham, MA, USA). For each assay, we seeded 20,000 HepG2 cells per well on collagen coated 384-well Cytostar-T plates or 5000 HEK293 cells per well on ploy-D-lysine coated 384-well Cytostar-T plates. On the following day, we changed culture medium to assay buffer: 120 mM NaCl, 5.4 mM KCl, 0.8 mM MgSO4, 5 mM glucose, 1.8 mM CaCl2, 25 mM Hepes, 25 mM MES, pH 6.5 (human) and pH 7.5 (mouse). We preincubated cells with compounds at 37 °C for 20 min, after which we added [14C] citrate (3 µM for HEK cells and 10 µM for HepG2 cells) and incubated cells for 50 min at 37 °C. After cooling down for 15 min at 4 °C, we measured the counts using a Microbeta2 reader system (Perkin Elmer).

[2] = Viability (PrestoBlue) / cytotoxicity in HepG2 cells; assay type: cell-based; settings: human, parallel to fatty acid synthesis assay
Experimental: We performed the fatty acid synthesis assay in HepG2 cells. We seeded cells into black clear-bottom 96-well plates (Corning 3340 cell plate) 75,000/well and incubated at 37 °C. After 16–24 h, we washed the plates once with 100 µL PBS (+CaCl2 +MgCl2) and added 50 µL assay medium ([…] containing 11 mM glucose, 10 mM HEPES, and 1 nM insulin) per well. Then, we applied test substances in assay medium (10 µL, 5% DMSO) and incubated for 20 min at 37 °C. Thereafter, we added 10 µL assay medium containing [14C] citrate (final concentration 50 µM) and PrestoBlue reagent (1× final concentration; Thermo Fisher Scientific, Waltham, MA, USA) and incubated for 180 min (37 °C, 5% CO2). We measured cell viability (ViewLux instrument, Perkin Elmer). We removed medium by vacuum aspiration and washed cells once with 100 µL PBS (+CaCl2 +MgCl2). We lysed cells with 50 µL lysis buffer (0.1 N NaOH, 0.1 % Triton X-100) and sealed plates with Tape Pads and vortexed. For the saponification reaction, we incubated plates for 16–24 h at 70 °C in a humidified environment. Then, we removed seals and added 200 µL 0.1 N HCl to neutralise the pH. We transferred 150 µL from each into corresponding wells of a 96-well Flash plate (Perkin Elmer) and sealed with TopSeal A (Perkin Elmer). […] We measured [14C] radioactivity (microbeta2, Perkin Elmer). […]

Structure (SMILES): O=C(Nc1cc(Cl)cc(C(F)(F)F)c1)OCCC(F)(F)F [ETG-5773]
- IC50 [1]: 0.18 µM
- IC50 at 180 min [2]: > 50 µM
